Test in all cases: relative viability (nuclei count vs DMSO), 5 days (fraction); higher = more cells survive
Compound in the test “Dactolisib + Palbociclib”: Cn1c(=O)n(-c2ccc(C(C)(C)C#N)cc2)c2c3cc(-c4cnc5ccccc5c4)ccc3ncc21 [Dactolisib] + CC(=O)c1c(C)c2cnc(Nc3ccc(N4CCNCC4)cn3)nc2n(C2CCCC2)c1=O [Palbociclib] (partner 0.5 µM)
Summed up:
(§1)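 After 5 days of treatment, lung cancer cells in 1536-well plates were fixed and stained in a single step (final 0.05% Triton X-100, 1% formaldehyde, 1 ug/ml Hoechst) and their nuclei counted on 4× images. Treatment had been applied by pin tool the day after seeding as one drug alone or as a fixed anchor-drug dose with five library-drug doses (not always all listed) in √10 steps. Relative viability is the nuclei count of treated wells divided by that of vehicle wells, and values are medians of duplicate plates.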

Compound in the test “AZ505 + Foretinib”: C1CCC(CC1)N(CCNCCC2=C3C(=C(C=C2)O)NC(=O)CO3)C(=O)CCNCCC4=CC(=C(C=C4)Cl)Cl [AZ505] + COc1cc2c(Oc3ccc(NC(=O)C4(C(=O)Nc5ccc(F)cc5)CC4)cc3F)ccnc2cc1OCCCN1CCOCC1 [Foretinib] (partner 0.25 µM)
The gist of the method:
as §1

Compound in a further test: C1CCC(CC1)N(CCNCCC2=C3C(=C(C=C2)O)NC(=O)CO3)C(=O)CCNCCC4=CC(=C(C=C4)Cl)Cl [AZ505]
Summed up: (§2)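 After an overnight hold at 37 °C, lung cancer cell lines in 1536-well plates were pinned with five library-drug doses (not always all listed), each √10 from the next, on vehicle-anchored plates. The cells stayed 5 days without fresh medium, then a one-step fix, permeabilisation and Hoechst stain preceded 4× imaging and MetaXpress nuclear counts. A plate passed only with control CV under 25% and at least one doubling. Viability is the median, over plates, of treated-well nuclei relative to vehicle-well nuclei.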

Compound in another test: Cn1c(=O)n(-c2ccc(C(C)(C)C#N)cc2)c2c3cc(-c4cnc5ccccc5c4)ccc3ncc21 [Dactolisib]
The gist of the method:
as §2

Turning to UMC-11, the relative viability with Dactolisib + Palbociclib (first compound 0.002 µM) came out at 0.331; with Dactolisib + Palbociclib (first compound 0.006325 µM), 0.311; with Dactolisib + Palbociclib (first compound 0.02 µM), 0.344; with Dactolisib + Palbociclib (first compound 0.06325 µM), 0.318; in the test with Dactolisib + Palbociclib (first compound 0.2 µM), 0.305; with AZ505 + Foretinib (first compound 0.08 µM), 0.975. Besides, the relative viability with AZ505 + Foretinib (first compound 0.253 µM) was found to be 1.15; with AZ505 + Foretinib (first compound 0.8 µM), 0.922; with AZ505 + Foretinib (first compound 2.53 µM) it was 1.09; with AZ505 + Foretinib (first compound 8 µM), 1.11; in the test with AZ505 (0.08 µM), 0.887; in the test with AZ505 (0.253 µM), 0.994. Besides, the relative viability was 0.94 in the test with AZ505 (0.8 µM); 1.07 with AZ505 (2.53 µM); 1.03 with AZ505 (8 µM); 0.96 with Dactolisib (0.002 µM); 0.836 with Dactolisib (0.006325 µM); 0.77 with Dactolisib (0.02 µM). For the same cell line, the relative viability in the test with Dactolisib (0.06325 µM) stood at 0.398; with Dactolisib (0.2 µM) it was 0.273.

Source of the values: the supplement of paper PMC10307832.
